Measured values from PubChem BioAssay AID1963862 (Molecular Pharmacology Branch, DTP, NCI, 2024).

System: KRAS patient-derived spheroids with HUVEC/MSC, viability
Assay: Anticancer human tumor 941728-121-R-J1-PDC patient-derived lung adenocarcinoma cell line growth inhibition [KRAS2]
Details: for viability, T/C: stronger effect = lower value
In short: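 KRAS-mutant tumor cells were grown as spheroids with HUVEC endothelial cells and human MSCs as stroma. Targeted agents were tested alone and with KRAS pathway inhibitors. Doses started at or near clinical Cmax, or 10 microM, descending half-log.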

[1] = curve of first compound, second compound 0.1 µM
[2] = curve of first compound, second compound 0.316 µM
[3] = curve of first compound, second compound 1 µM
[4] = curve of first compound, second compound 3.16 µM
[5] = curve of first compound, second compound 10 µM
[6] = second compound 0.1 µM, first compound 0.00316 µM
[7] = second compound 0.1 µM, first compound 0.01 µM
[8] = second compound 0.1 µM, first compound 0.0316 µM
[9] = second compound 0.1 µM, first compound 0.1 µM
[10] = second compound 0.1 µM, first compound 0.316 µM
[11] = second compound 0.1 µM, first compound 1 µM
[12] = second compound 0.316 µM, first compound 0.00316 µM
[13] = second compound 0.316 µM, first compound 0.01 µM
[14] = second compound 0.316 µM, first compound 0.0316 µM
[15] = second compound 0.316 µM, first compound 0.1 µM
[16] = second compound 0.316 µM, first compound 0.316 µM
[17] = second compound 0.316 µM, first compound 1 µM
[18] = second compound 1 µM, first compound 0.00316 µM
[19] = second compound 1 µM, first compound 0.01 µM
[20] = second compound 1 µM, first compound 0.0316 µM
[21] = second compound 1 µM, first compound 0.1 µM
[22] = second compound 1 µM, first compound 0.316 µM
[23] = second compound 1 µM, first compound 1 µM
[24] = second compound 3.16 µM, first compound 0.00316 µM
[25] = second compound 3.16 µM, first compound 0.01 µM
[26] = second compound 3.16 µM, first compound 0.0316 µM
[27] = second compound 3.16 µM, first compound 0.1 µM
[28] = second compound 3.16 µM, first compound 0.316 µM
[29] = second compound 3.16 µM, first compound 1 µM
[30] = second compound 10 µM, first compound 0.00316 µM
[31] = second compound 10 µM, first compound 0.01 µM
[32] = second compound 10 µM, first compound 0.0316 µM
[33] = second compound 10 µM, first compound 0.1 µM
[34] = second compound 10 µM, first compound 0.316 µM
[35] = second compound 10 µM, first compound 1 µM
[36] = second compound 0.1 µM, first compound 3.16 µM
[37] = second compound 0.316 µM, first compound 3.16 µM
[38] = second compound 1 µM, first compound 3.16 µM
[39] = second compound 3.16 µM, first compound 3.16 µM
[40] = second compound 10 µM, first compound 3.16 µM
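Further: spheroids exposed to agents for seven days before readout.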

CCN1CCN(Cc2ccc(Nc3ncc(F)c(-c4cc(F)c5nc(C)n(C(C)C)c5c4)n3)nc2)CC1 + CC1OCC2(CCN(c3cnc(Sc4ccnc(N)c4Cl)c(N)n3)CC2)C1N showed an IC50 [1] of less than 3.16 nM, an IC50 [2] of less than 3.16 nM and an IC50 [3] of less than 3.16 nM. It also gave an IC50 [4] of less than 3.16 nM, an IC50 [5] of less than 3.16 nM and a viability, T/C [6] of 47.5%. The viability, T/C [7] was 40.5%, the viability, T/C [8] was 36.2% and the viability, T/C [9] was 35.9%. It also gave a viability, T/C [10] of 37.5%, a viability, T/C [11] of 44.4% and a viability, T/C [12] of 35.3%. It also gave a viability, T/C [13] of 31.2%, a viability, T/C [14] of 30.5% and a viability, T/C [15] of 31.7%. The viability, T/C [16] was 24.3%, the viability, T/C [17] was 26% and the viability, T/C [18] was 32.5%. It also gave a viability, T/C [19] of 29.4%, a viability, T/C [20] of 29.1% and a viability, T/C [21] of 28.5%. The viability, T/C [22] was 23.1%, the viability, T/C [23] was 17.5% and the viability, T/C [24] was 25.8%. It also gave a viability, T/C [25] of 25.4%, a viability, T/C [26] of 24.2% and a viability, T/C [27] of 24.4%. The viability, T/C [28] was 16.5%, the viability, T/C [29] was 13.5% and the viability, T/C [30] was 22.9%. It also gave a viability, T/C [31] of 22.7%, a viability, T/C [32] of 19.6% and a viability, T/C [33] of 15.6%. The viability, T/C [34] was 9.09% and the viability, T/C [35] was 9.79%.
In the case of CC(=O)Nc1cccc(-n2c(=O)n(C3CC3)c(=O)c3c(Nc4ccc(I)cc4F)n(C)c(=O)c(C)c32)c1 + COc1cc2nc(C)nc(NC(C)c3cc(N)cc(C(F)(F)F)c3)c2cc1OC1CCOC1, the IC50 [1] is reported as 0.129 nM, the IC50 [2] is reported as less than 0.1 nM and the IC50 [3] is reported as less than 0.1 nM. For the same compound, the IC50 [4] was less than 0.1 nM, the IC50 [5] was less than 0.1 nM and the viability, T/C (second compound 0.1 µM, first compound 0.0001 µM) was 51.3%. The viability, T/C (second compound 0.1 µM, first compound 0.000316 µM) was 47.6%, the viability, T/C (second compound 0.1 µM, first compound 0.001 µM) was 39.7% and the viability, T/C [6] was 39.5%. The viability, T/C [7] was 39.4%, the viability, T/C [8] was 29.4% and the viability, T/C (second compound 0.316 µM, first compound 0.0001 µM) was 44.3%. For the same compound, the viability, T/C (second compound 0.316 µM, first compound 0.000316 µM) was 40.5%, the viability, T/C (second compound 0.316 µM, first compound 0.001 µM) was 40% and the viability, T/C [12] was 35.8%. The viability, T/C [13] was 36.3%, the viability, T/C [14] was 29.9% and the viability, T/C (second compound 1 µM, first compound 0.0001 µM) was 41.1%. The viability, T/C (second compound 1 µM, first compound 0.000316 µM) was 40.8%, the viability, T/C (second compound 1 µM, first compound 0.001 µM) was 38.1% and the viability, T/C [18] was 30.6%. The viability, T/C [19] was 31.1%, the viability, T/C [20] was 25.7% and the viability, T/C (second compound 3.16 µM, first compound 0.0001 µM) was 32%. The viability, T/C (second compound 3.16 µM, first compound 0.000316 µM) was 29%, the viability, T/C (second compound 3.16 µM, first compound 0.001 µM) was 24.6% and the viability, T/C [24] was 18.8%. The viability, T/C [25] was 21.8%, the viability, T/C [26] was 17.7% and the viability, T/C (second compound 10 µM, first compound 0.0001 µM) was 6.11%. For the same compound, the viability, T/C (second compound 10 µM, first compound 0.000316 µM) was 3.95%, the viability, T/C (second compound 10 µM, first compound 0.001 µM) was 3.66% and the viability, T/C [30] was 2.67%. The viability, T/C [31] was 2.71% and the viability, T/C [32] was 2.71%.
For COC(=O)c1ccc2c(C(=Nc3ccc(N(C)C(=O)CN4CCN(C)CC4)cc3)c3ccccc3)c(O)[nH]c2c1, the viability, T/C (compound 0.1 µM) was 77.9% [middle of 5 runs], the viability, T/C (compound 1 µM) was 68.6% [middle of 5 runs] and the viability, T/C (compound 3.16 µM) was 69% [middle of 5 runs]. For the same compound, the viability, T/C (compound 10 µM) was 64% [middle of 5 runs] and the IC50 (curve of compound) was greater than 10000 nM.
Compound CC1OCC2(CCN(c3cnc(Sc4ccnc(N)c4Cl)c(N)n3)CC2)C1N (stereo not given) + COc1cc2nc(C)nc(NC(C)c3cc(N)cc(C(F)(F)F)c3)c2cc1OC1CCOC1 has an IC50 [1] of less than 31.6 nM, an IC50 [2] of less than 31.6 nM and an IC50 [3] of less than 31.6 nM. For the same compound, the IC50 [4] was less than 31.6 nM, the IC50 [5] was less than 31.6 nM and the viability, T/C [8] was 49.4%. For the same compound, the viability, T/C [9] was 43.1%, the viability, T/C [10] was 38.4% and the viability, T/C [11] was 36.1%. It also gave a viability, T/C [36] of 39%, a viability, T/C (second compound 0.1 µM, first compound 10 µM) of 34.5% and a viability, T/C [14] of 47.2%. For the same compound, the viability, T/C [15] was 41.4%, the viability, T/C [16] was 34.1% and the viability, T/C [17] was 35.7%. It also gave a viability, T/C [37] of 37%, a viability, T/C (second compound 0.316 µM, first compound 10 µM) of 39.7% and a viability, T/C [20] of 48%. The viability, T/C [21] was 43.8%, the viability, T/C [22] was 35% and the viability, T/C [23] was 36.2%. For the same compound, the viability, T/C [38] was 32.3%, the viability, T/C (second compound 1 µM, first compound 10 µM) was 29.9% and the viability, T/C [26] was 43.6%. The viability, T/C [27] was 39%, the viability, T/C [28] was 35.3% and the viability, T/C [29] was 33.4%. For the same compound, the viability, T/C [39] was 29.5%, the viability, T/C (second compound 3.16 µM, first compound 10 µM) was 26.6% and the viability, T/C [32] was 30%. For the same compound, the viability, T/C [33] was 21.2%, the viability, T/C [34] was 13.1% and the viability, T/C [35] was 13.3%. For the same compound, the viability, T/C [40] was 11.6% and the viability, T/C (second compound 10 µM, first compound 10 µM) was 5.88%.
For CC1COCCN1c1cc(-c2ccnn2C)c2ccnc(-c3ccn[nH]3)c2n1 (stereo not given) + C=CC(=O)N1CCN(c2nc(=O)n(-c3c(C)ccnc3C(C)C)c3nc(-c4c(O)cccc4F)c(F)cc23)C(C)C1, the IC50 [1] was less than 10 nM, the IC50 [2] was less than 10 nM and the IC50 [3] was less than 10 nM. It also gave an IC50 [4] of less than 10 nM, an IC50 [5] of less than 10 nM and a viability, T/C [7] of 23.9%. It also gave a viability, T/C [8] of 20.3%, a viability, T/C [9] of 18.5% and a viability, T/C [10] of 16.3%. For the same compound, the viability, T/C [11] was 13.1%, the viability, T/C [36] was 10.7% and the viability, T/C [13] was 23.6%. The viability, T/C [14] was 23.2%, the viability, T/C [15] was 19.2% and the viability, T/C [16] was 19.1%. For the same compound, the viability, T/C [17] was 13.5%, the viability, T/C [37] was 10.5% and the viability, T/C [19] was 25.1%. The viability, T/C [20] was 24.6%, the viability, T/C [21] was 21% and the viability, T/C [22] was 17.5%. The viability, T/C [23] was 14.1%, the viability, T/C [38] was 14% and the viability, T/C [25] was 26.2%. For the same compound, the viability, T/C [26] was 27.1%, the viability, T/C [27] was 24.2% and the viability, T/C [28] was 21.2%. For the same compound, the viability, T/C [29] was 20.1%, the viability, T/C [39] was 16.5% and the viability, T/C [31] was 33.3%. For the same compound, the viability, T/C [32] was 34.8%, the viability, T/C [33] was 31.9% and the viability, T/C [34] was 28.4%. For the same compound, the viability, T/C [35] was 25.4% and the viability, T/C [40] was 30.5%.
